Test results taken from patent US9066961B2, “Medicament for LCT poisoning” (JOHANNES GUTENBERG-UN[…], priority 2006, dated 2015).

B1: Preparation D: TcdB fragment AS1508-1601 (part of the inosine-binding motif) (protein, UniProt P18177 1508-1601, looked up, fragment)
chain: YYSNNLKDVKVITKDNVNILTGYYLKDDIKISLSLTLQDEKTIKLNSVHLDESGVAEILKFMNRKGNTNTSDSLMSFLESMNIKSIFVNFLQSN
B2: Preparation C: TcdB fragment AS1601-1716 (DSG motif) (protein, UniProt P18177 1601-1716, looked up, fragment)
chain: NIKFILDANFIISGTTSIGQFEFICDENDNIQPYFIKFNTLETNYTLYVGNRQNMIVEPNYDLDDSGDISSTVINFSQKYLYGIDSCVNKVVISPNIYTDEINITPVYETNNTYPE

How the values were obtained:
[1] = target: T1, TcdB10463 (Clostridioides difficile, UniProt P18177); format: biochemical, Clostridium difficile
T1 construct: the TcdB10463, purified from culture supernate of C. difficile, used in the experiments; purchased tgcBIOMICS, Mainz, Germany; host or cells: Clostridium difficile VPI10463 culture supernatant

[2] = target: T1, TcdB10463; test: In vitro cleavage assay of TcdB10463 after pre-treatment with protease inhibitor EPNP; format: biochemical, Clostridium difficile
Description: TcdB10463 was purified as described in Example 1 (D) by means of affinity chromatography with the use of the monoclonal antibody 2CV and then pre-treated either (i) with the protease inhibitor EPNP (10 mM 1,2-epoxy-3-(p-nitrophenoxy)-propane) or (ii)—as control—with buffer (50 mM HEPES, 1M NaCl, 1 mM EDTA, pH 8.0) for 60 minutes at room temperature.
Then an in vitro cleavage assay analogous to Example 1 (A) was carried out. The test batches comprised respectively a volume of 10 μl, and contained respectively 50-100 ng unmarked TcdB10463, 100 μM IP6 and 10 mM tris-HCl pH 8.5. Following the incubation (1 h at room temperature), these test batches were subjected to a SDS-PAGE (10%) and the toxins and toxin fragments were then made visible by means of zinc stain.

[3] = target: TcdB (Clostridioides difficile, UniProt P18177); details: for Start of cell rounding after: CHO cells, TcdB pre-treated with polyclonal antiserum (1:100) 1 h at room temperature; for Neutralising effect of the polyclonal antiserum in the CHO test: antiserum of rabbits immunised with the preparation, dilution 1:100
Description: The CHO test was carried out as follows: In a 96 well microtiter plate, CHO cells (=Chinese hamster ovarial cells) were disseminated (5000 cells/well) and incubated for 16 hours under standard conditions (5% CO2, DMEM F12 supplemented with […] L-glutamins, 5% FCS). The toxins were then introduced to the cells after gradual dilution in growth medium. Dilution stages between 10° and 10^−8 were tested. The cells were incubated for 3 hours under standard conditions. Then the proportion of rounded cells was determined microscopically, by several representative sections of the well being photographed and the elongated and the rounded cells being counted. (See also Moos et al., Meth Enzymol. 2000, 325: 114-125. Reference is made here expressly to the content of this publication).
In order to check the neutralising effect of the polyclonal antiserums, firstly TcdB was pre-treated with polyclonal antiserum (dilution stage 1:100) and incubated for 1 h at room temperature. Then the neutralising effect of the antiserums was checked as described in Example 2 with the aid of the CHO test. The measurement for the neutalising effect of the serums was how long the cells were protected from the cytotoxic effect of the TcdB.

T1 sequence (P18177 whole entry): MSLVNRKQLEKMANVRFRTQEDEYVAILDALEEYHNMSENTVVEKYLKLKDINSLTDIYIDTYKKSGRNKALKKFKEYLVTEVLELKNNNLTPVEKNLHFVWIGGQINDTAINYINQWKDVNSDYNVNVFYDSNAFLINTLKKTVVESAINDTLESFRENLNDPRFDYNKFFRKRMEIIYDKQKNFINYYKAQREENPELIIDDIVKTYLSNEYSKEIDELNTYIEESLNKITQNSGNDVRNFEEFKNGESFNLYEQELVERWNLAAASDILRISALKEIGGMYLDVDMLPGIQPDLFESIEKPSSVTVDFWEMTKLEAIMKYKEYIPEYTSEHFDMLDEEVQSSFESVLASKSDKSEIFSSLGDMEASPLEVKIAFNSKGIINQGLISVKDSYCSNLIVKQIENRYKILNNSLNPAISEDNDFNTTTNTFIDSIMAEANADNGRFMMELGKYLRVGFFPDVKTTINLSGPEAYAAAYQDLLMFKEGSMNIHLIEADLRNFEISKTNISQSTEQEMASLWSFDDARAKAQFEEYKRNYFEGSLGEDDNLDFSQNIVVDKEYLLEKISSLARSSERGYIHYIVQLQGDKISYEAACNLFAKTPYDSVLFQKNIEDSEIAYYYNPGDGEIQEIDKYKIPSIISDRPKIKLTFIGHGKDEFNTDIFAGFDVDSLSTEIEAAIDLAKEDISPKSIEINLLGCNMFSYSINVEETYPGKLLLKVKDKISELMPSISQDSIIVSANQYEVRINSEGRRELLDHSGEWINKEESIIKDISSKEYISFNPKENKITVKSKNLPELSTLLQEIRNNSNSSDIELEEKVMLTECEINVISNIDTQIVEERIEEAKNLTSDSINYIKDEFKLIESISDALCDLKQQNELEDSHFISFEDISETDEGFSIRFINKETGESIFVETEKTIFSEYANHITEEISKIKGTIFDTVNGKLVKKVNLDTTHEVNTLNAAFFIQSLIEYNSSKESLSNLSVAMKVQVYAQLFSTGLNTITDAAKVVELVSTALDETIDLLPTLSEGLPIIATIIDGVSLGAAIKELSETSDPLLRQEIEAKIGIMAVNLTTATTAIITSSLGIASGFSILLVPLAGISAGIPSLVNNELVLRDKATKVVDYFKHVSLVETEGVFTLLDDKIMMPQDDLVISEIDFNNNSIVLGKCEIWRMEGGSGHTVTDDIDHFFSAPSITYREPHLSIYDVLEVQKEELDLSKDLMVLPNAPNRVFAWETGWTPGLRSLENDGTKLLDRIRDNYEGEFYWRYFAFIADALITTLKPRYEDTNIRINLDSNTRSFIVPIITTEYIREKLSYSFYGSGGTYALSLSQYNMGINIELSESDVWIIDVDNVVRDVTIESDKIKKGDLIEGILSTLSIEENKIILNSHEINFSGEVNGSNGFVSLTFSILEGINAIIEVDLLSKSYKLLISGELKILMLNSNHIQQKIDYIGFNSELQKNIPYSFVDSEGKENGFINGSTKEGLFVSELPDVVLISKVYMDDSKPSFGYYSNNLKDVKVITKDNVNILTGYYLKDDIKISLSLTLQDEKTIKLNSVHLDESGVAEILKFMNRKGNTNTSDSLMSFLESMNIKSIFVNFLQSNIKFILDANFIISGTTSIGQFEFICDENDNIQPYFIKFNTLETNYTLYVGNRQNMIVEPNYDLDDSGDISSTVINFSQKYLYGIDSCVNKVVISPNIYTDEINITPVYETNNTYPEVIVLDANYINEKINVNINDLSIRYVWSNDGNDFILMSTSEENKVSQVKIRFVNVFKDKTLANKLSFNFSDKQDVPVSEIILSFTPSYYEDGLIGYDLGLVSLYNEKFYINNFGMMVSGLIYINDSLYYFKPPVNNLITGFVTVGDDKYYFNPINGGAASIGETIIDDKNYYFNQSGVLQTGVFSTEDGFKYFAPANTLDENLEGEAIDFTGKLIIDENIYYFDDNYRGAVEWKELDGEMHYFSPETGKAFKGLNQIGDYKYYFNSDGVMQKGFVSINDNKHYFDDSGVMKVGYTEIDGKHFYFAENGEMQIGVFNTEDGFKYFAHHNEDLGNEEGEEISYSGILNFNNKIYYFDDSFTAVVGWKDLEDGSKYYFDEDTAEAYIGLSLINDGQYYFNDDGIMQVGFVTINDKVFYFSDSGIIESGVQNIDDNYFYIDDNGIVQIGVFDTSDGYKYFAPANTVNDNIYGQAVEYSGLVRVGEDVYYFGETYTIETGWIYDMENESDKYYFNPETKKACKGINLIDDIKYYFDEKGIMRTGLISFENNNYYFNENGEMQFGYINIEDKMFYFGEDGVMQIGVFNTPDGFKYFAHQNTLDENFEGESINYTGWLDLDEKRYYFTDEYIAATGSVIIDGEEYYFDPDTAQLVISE
Chain of TcdB (P18177 whole entry): as above

| Molecule | Start of cell rounding after [3] [h] | Neutralising effect of the polyclonal antiserum in the CHO test [3] | also measured |
| --- | --- | --- | --- |
| O=P(O)(O)O[C@H]1[C@H](OP(=O)(O)O)[C@@H](OP(=O)(O)O)[C@H](OP(=O)(O)O)[C@@H](OP(=O)(O)O)[C@H]1OP(=O)(O)O [IP 1, 2, 3, 4, 5, 6, inositol hexaphosphate] | – | – | Cleavage activity (initiator activity) amongst the tested inositol phosphates [1]: strongest cleavage activity; Cleavage of the holotoxin into 63 kDa and 207 kDa fragments [1]: complete cleavage |
| O=[N+]([O-])c1ccc(OCC2CO2)cc1 (centres unmarked) [EPNP, 1,2-epoxy-3-(p-nitrophenoxy)-propane] | – | – | 63 kD band in SDS-PAGE ([2]; TcdB10463 pre-treated with EPNP, after incubation with IP6 (FIG. 2, Line 2)): only weakly formed; Proteolytic activity (protease activity) of TcdB10463 ([2]; pre-treatment with 10 mM EPNP 60 minutes, then 100 μM IP6 1 h at room temperature): almost completely inhibited |
| B1 | 9 to 12 | smaller neutralising effect | – |
| B2 | 12 to 15 | smaller neutralising effect | – |
